# Experimental data reported in patent publication US9669003B2, “Use of flavone and flavanone derivatives in preparation of sedative and hypnotic drugs” (priority 2012, dated 2017).
# Marks after values point to notes of the source that are not given here.
# What was measured:
# Assay type in all cases: in vivo
# Kunming mice [1] = test: Influence on autonomic activity of normal mice (ZIL-2 mice autonomic activity meter, counts within 10 min); conditions: intragastric, x ± s, n = 10; for Times of activities in 1 h after drug administration/10 min: 1 h after administration; for Times of activities in 2 h after drug administration/10 min: 2 h after administration; for Times of activities in 24 h after drug administration/10 min: 24 h after administration
# Outline: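 Activity counts during a 10-min window were taken at 1, 2 and 24 h after dosing in groups of 10 mixed-sex Kunming mice. Compounds were given in 0.5% CMC-Na at 25, 50 or 100 mg/kg. Statistics used Levene's homogeneity test, ANOVA and Dunnett's multiple comparisons.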
# Kunming mice [2] = test: Influence on hypnosis effect with pentobarbital sodium doses below the threshold (25 mg/kg i.p.); conditions: pentobarbital sodium 25 mg/kg i.p. 60 min later, sleep observed in 30 min, n = 10
# Outline: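 Percentage of mice sleeping within 30 min after subthreshold pentobarbital sodium (25 mg/kg i.p.), defined by loss of righting reflex over 1 min, analysed by χ2. Compound in 0.5% CMC-Na given intragastrically at 25/50/100 mg/kg 60 min before; groups of 10 Kunming mice, both sexes.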
# Kunming mice [3] = test: Influence on hypnosis effect with pentobarbital sodium doses at the threshold (50 mg/kg i.p.); conditions: pentobarbital sodium 50 mg/kg i.p. 60 min later, x ± s, n = 10
# Outline: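 Pentobarbital sodium (0.3%, 50 mg/kg i.p.) injected 60 min after a single intragastric dose (25, 50, 100 mg/kg, 0.5% CMC-Na vehicle) in Kunming mice, 10 per group, sexes balanced. Onset and length of sleep (righting reflex lost over 1 min) analysed by ANOVA; sleeping incidence by χ2 test.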
# [4] = test drug 25 mg/kg intragastric single dose
# [5] = test drug 50 mg/kg intragastric single dose
# [6] = test drug 100 mg/kg intragastric single dose
# [7] = 25 mg/kg intragastric single dose
# [8] = 50 mg/kg intragastric single dose
# [9] = 100 mg/kg intragastric single dose
SMILES,Times of activities in 1 h after drug administration/10 min (Kunming mice [1]; 25 mg/kg),Times of activities in 2 h after drug administration/10 min (Kunming mice [1]; 25 mg/kg),Times of activities in 24 h after drug administration/10 min (Kunming mice [1]; 25 mg/kg),Times of activities in 1 h after drug administration/10 min (Kunming mice [1]; 50 mg/kg),Times of activities in 2 h after drug administration/10 min (Kunming mice [1]; 50 mg/kg),Times of activities in 24 h after drug administration/10 min (Kunming mice [1]; 50 mg/kg),Times of activities in 1 h after drug administration/10 min (Kunming mice [1]; 100 mg/kg),Times of activities in 2 h after drug administration/10 min (Kunming mice [1]; 100 mg/kg),Times of activities in 24 h after drug administration/10 min (Kunming mice [1]; 100 mg/kg),Number of sleeping animals (Kunming mice [2]; [4]),rate of sleeping (%) (Kunming mice [2]; [4]),Number of sleeping animals (Kunming mice [2]; [5]),rate of sleeping (%) (Kunming mice [2]; [5]),Number of sleeping animals (Kunming mice [2]; [6]),rate of sleeping (%) (Kunming mice [2]; [6]),duration of sleep (Kunming mice [3]; [7]) [min],time to sleep (Kunming mice [3]; [7]) [min],duration of sleep (Kunming mice [3]; [8]) [min],time to sleep (Kunming mice [3]; [8]) [min],duration of sleep (Kunming mice [3]; [9]) [min],also measured
CCc1cc(C2CC(=O)c3cc([N+](=O)[O-])c(SC#N)c(C4CCNC4)c3O2)ccc1C(=O)c1ccccc1 (stereo not drawn) [Example 54],307.3 ± 65.2 /10 min,287.3 ± 72.9 /10 min,331.2 ± 67.4 /10 min,252.8 ± 62.1 /10 min,240.2 ± 62.6 /10 min,320.7 ± 75.1 /10 min,205.3 ± 42.8 /10 min,198.3 ± 48.5 /10 min,315.3 ± 79.2 /10 min,3,30%,5,50** %,7,70** %,35.81 ± 17.2,4.84 ± 1.64,43.53 ± 14.97,4.33 ± 1.87,47.53 ± 15.92,time to sleep (Kunming mice [3]; [9]): 3.63 ± 1.54 min
"COc1cc(C2Oc3c(cc(OC)c(OC)c3OC)C(=O)C2OC)c(O)c(OC)c1OC (stereo not drawn) [Example 69, 6′-hydroxyl-3,6,7,8,3′,4′,5′-hepta methoxyl-flavanone]",322.3 ± 51.3 /10 min,278.3 ± 40.3 /10 min,299.1 ± 80.7 /10 min,298.0 ± 41.5 /10 min,251.7 ± 39.4 /10 min,309.1 ± 91.0 /10 min,289.3 ± 50.7 /10 min,235.8 ± 47.4 /10 min,320.4 ± 80.4 /10 min,3,30%,5,50* %,7,70** %,31.77 ± 22.78,4.98 ± 1.88,57.73 ± 18.49,4.27 ± 1.62,64.09 ± 31.23,time to sleep (Kunming mice [3]; [9]): 3.87 ± 1.78 min
CCCc1cc(C2CC(=O)c3c(cc(O)cc3[N+](=O)[O-])O2)cc(-c2ccccc2)c1C1CCSC1 (stereo not drawn) [Example 51],227.8 ± 75.6 /10 min,231.8 ± 79.8 /10 min,321.6 ± 70.7 /10 min,143.3 ± 64.7 /10 min,130.7 ± 63.2 /10 min,306.3 ± 68.2 /10 min,115.8 ± 34.4 /10 min,108.8 ± 39.4 /10 min,300.4 ± 77.5 /10 min,6,60** %,6,60** %,8,80*** %,49.88 ± 19.09,4.61 ± 1.74,57.61 ± 14.98,3.43 ± 1.99,82.27 ± 15.68,time to sleep (Kunming mice [3]; [9]): 2.71 ± 1.72 min
"COc1cc2c(c(OC)c1OC)OC(c1cc(OC)c(OC)c(OC)c1OC)CC2=O (stereo not drawn) [Example 67, 6,7,8,3′,4′,5′,6′-hepta methoxyl-flavanone]",287.7 ± 45.4 /10 min,312.5 ± 54.8 /10 min,307.4 ± 77.0 /10 min,247.2 ± 44.5 /10 min,251.3 ± 38.8 /10 min,314.6 ± 94.9 /10 min,223.4 ± 46.5 /10 min,243.7 ± 40.6 /10 min,301.9 ± 88.6 /10 min,5,50** %,6,60** %,7,70** %,80.69 ± 20.87,4.34 ± 1.26,48.12 ± 22.48,4.09 ± 1.45,54.43 ± 19.81,time to sleep (Kunming mice [3]; [9]): 3.87 ± 2.98 min
CC=Cc1cc(C(=O)O)c2c(=O)cc(-c3ccc(C#N)c(C(=O)O)c3)oc2c1 [Example 40],291.4 ± 51.5 /10 min,276.0 ± 48.7 /10 min,311.2 ± 79.9 /10 min,245.7 ± 44.5 /10 min,223.6 ± 43.8 /10 min,288.9 ± 68.9 /10 min,145.7 ± 39.8 /10 min,169.8 ± 40.5 /10 min,301.5 ± 91.8 /10 min,4,40* %,6,60** %,7,70** %,21.71 ± 26.77,5.32 ± 2.47,27.68 ± 27.86,5.13 ± 2.64,61.35 ± 45.27,time to sleep (Kunming mice [3]; [9]): 4.92 ± 1.26 min
C=Cc1cc(-c2cc(=O)c3c(C4CCSC4)cc(C(N)=O)cc3o2)cc(N)c1CC (stereo not drawn) [Example 17],284.9 ± 49.3 /10 min,280.1 ± 42.7 /10 min,306.2 ± 81.3 /10 min,176.6 ± 50.2 /10 min,189.3 ± 57.3 /10 min,291.5 ± 70.0 /10 min,153.1 ± 38.4 /10 min,135.9 ± 48.7 /10 min,302.1 ± 89.0 /10 min,3,30%,6,60** %,7,70** %,32.56 ± 25.95,5.55 ± 1.45,45.62 ± 21.08,3.97 ± 1.26,57.86 ± 25.22,time to sleep (Kunming mice [3]; [9]): 3.96 ± 1.14 min
"COc1cc(-c2cc(=O)c3c(OC)c(OC)c(OC)cc3o2)cc(OC)c1OC [Example 13, 5,6,7,3′,4′,5′-hexamethoxyl-flavone]",293.2 ± 47.1 /10 min,278.5 ± 42.8 /10 min,302.8 ± 67.2 /10 min,280.7 ± 61.3 /10 min,278.6 ± 47.5 /10 min,309.2 ± 81.3 /10 min,247.2 ± 35.6 /10 min,225.3 ± 44.2 /10 min,291.5 ± 69.5 /10 min,4,40* %,6,60** %,7,70** %,39.25 ± 17.25,4.26 ± 1.23,57.33 ± 29.41,3.93 ± 1.15,59.23 ± 25.36,time to sleep (Kunming mice [3]; [9]): 3.83 ± 1.21 min
